Patent publication US10227349B2, “Pyrazolo[1,5-a]pyrimidine compound” (Eisai R&D Management Co., Ltd., priority 2016, dated 2019)

Experiments:
PAR2 [1] = molecular target: T1, PAR2 (Homo sapiens, UniProt P55085); assay: Intracellular calcium concentration measurement (trypsin-induced calcium elevation, FDSS6000); assay type: cell-based; settings: HEK293 cells, trypsin 5 U/mL as agonist, test compound added 30 min before measurement; read-out: Inhibitory activity on intracellular calcium elevation (IC50 (nM))
T1 construct: Human embryonic kidney cell line HEK293 cells cultured using DMEM culture medium; endogenous in cells; host or cells: HEK293
T1 sequence (P55085 26-397): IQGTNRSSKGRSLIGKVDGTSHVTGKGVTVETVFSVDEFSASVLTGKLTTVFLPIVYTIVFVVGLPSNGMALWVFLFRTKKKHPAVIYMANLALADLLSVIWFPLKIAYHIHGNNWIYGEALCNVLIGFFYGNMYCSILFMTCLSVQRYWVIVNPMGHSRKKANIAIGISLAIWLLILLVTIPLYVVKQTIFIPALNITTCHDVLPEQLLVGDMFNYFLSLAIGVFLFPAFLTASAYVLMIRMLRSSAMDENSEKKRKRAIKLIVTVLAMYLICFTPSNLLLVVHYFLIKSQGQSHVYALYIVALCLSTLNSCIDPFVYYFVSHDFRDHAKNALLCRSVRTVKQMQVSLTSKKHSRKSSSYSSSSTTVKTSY
Source text: In the present specification, examples of the measurement method for the PAR2 inhibitory activity include measurement method for a concentration elevation of intracellular calcium; measurement method for a production increase of intracellular inositol trisphosphate; measurement method for an increase in intracellular protein phosphorylation by protein kinase C and MAP kinase; and measurement method for a production amount or a release amount of inflammation-related physiologically active substances such as cytokine, chemokine, prostaglandin and nitric monoxide. Examples of the measurement method for an elevation of intracellular calcium concentration include a method wherein a calcium-binding fluorescent probe is allowed to be incorporated in advance into a cultured cell line or an animal-derived isolated cell having PAR2, or a cell in which PAR2 is artificially expressed, a protease having the PAR2 activity function such as trypsin or a PAR2 agonist (synthetic peptides such as SLIGKV-NH2 (SEQ ID NO: 1) and SLIGRL-NH2 (SEQ ID NO: 2) is added to activate PAR2 whereby fluctuating intracellular calcium concentrations are detected as changes in the fluorescent signal. Alternatively, it is also possible to measure an intracellular calcium concentration by determining the quantity of a fluorescence intensity produced in proportion to the calcium concentration using a calcium-binding luminescent protein overexpressing cell line such as Aequorin. Specifically, examples include the methods described in Test Examples of the present specification.
Human embryonic kidney cell line HEK293 cells cultured using DMEM culture medium (Invitrogen) with 3% fetal bovine serum (3% FBS)-added was prepared to have a concentration of 2×10^5 cells/mL, and plated in a type I collagen-coated 384-well black plate (clear bottom) (Greiner) so as to be 25 μL/well and cultured in a CO2 incubator overnight. FLIPR Calcium Assay Kit (Molecular Devices) prepared with Hanks-20 mM Hepes buffer (pH 7.4) was added to the cells so as to be 25 μL/well and cultured in the CO2 incubator for 1 hour. Trypsin (SIGMA-ALDRICH, catalog number: T8816, Enzyme Commission Number 3.4.21.4) prepared so as to be 5 U/mL as final concentration (BAEE unit) with Hanks-20 mM Hepes buffer (pH 7.4) was added to a 384-well deep well polypropylene plate (Greiner) to be an agonist reagent plate. Thirty minutes before the measurement using FDSS6000 (Hamamatsu Photonics K.K.), a test compound prepared with Hanks-20 mM Hepes buffer (pH 7.4) was added to the cell so as to be 8 μL/well. The cell plate to which the test compound was added and the reagent plate were set on FDSS6000, 22 μL/well of the agonist solution was added from the reagent plate, and the change in intracellular calcium concentration was measured with a CCD camera. The measurement was carried out at 37° C. for 120 seconds and the addition of reagent from the reagent plate to the cell plate was carried out using a built-in 384-well automatic dispenser of FDSS6000.
Note that Reference Example 1 in Table 3 is the compound represented by formula (XIX) synthesized in the above Reference Example 1 (hereinafter, also referred to as Compound (XIX)). Additionally, the “Comparative Compound” in Table 3 is the compound described in Patent Literature 4 represented by the following formula (XX) (I-343; hereinafter, also referred to as Compound (XX)).

PAR2 [2] = molecular target: T2, PAR2 (Mus musculus, UniProt P55086); assay: Measurement of PAR2 agonist (SLIGRL-NH2)-induced salivation in mouse; assay type: in vivo; settings: C57BL/6J male mice, 0.3 mg/mL solution 10 mL/kg orally, 60 min before SLIGRL-NH2 i.p., saliva collected 10 min
T2 construct: orally administered to C57BL/6J male mice (Charles River), 6-10 weeks of age; tissue Charles River; host or cells: Living C57BL/6J male mice (in vivo; saliva secretion)
T2 sequence (P55086 26-399): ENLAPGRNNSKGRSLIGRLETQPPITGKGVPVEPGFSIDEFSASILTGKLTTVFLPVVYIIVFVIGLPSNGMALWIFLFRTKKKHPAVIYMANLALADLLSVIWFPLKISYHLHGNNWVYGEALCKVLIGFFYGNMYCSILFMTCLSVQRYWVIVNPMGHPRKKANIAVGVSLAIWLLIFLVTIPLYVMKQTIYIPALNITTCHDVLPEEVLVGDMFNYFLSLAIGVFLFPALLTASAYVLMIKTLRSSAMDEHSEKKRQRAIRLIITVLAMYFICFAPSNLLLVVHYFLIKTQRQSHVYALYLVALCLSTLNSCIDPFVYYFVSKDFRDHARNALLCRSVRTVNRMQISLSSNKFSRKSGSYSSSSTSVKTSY
Procedure: The test compound was added to a 0.5% carboxymethyl cellulose solution to which 2% DMSO was added, so as to have the final concentration of 0.3 mg/mL, thereby preparing an administration solution containing the test compound. The administration solution containing the test compound (10 mL/kg) was orally administered to C57BL/6J male mice (Charles River), 6-10 weeks of age, using an oral sonde and a syringe. Forty-five minutes after the administration of the test compound, 10 mL/kg of a 20% (w/v) urethane solution was intraperitoneal administered to the mice which were then anesthetized. Sixty minutes after the administration of the test compound, 10 mL/kg of a 0.1 mg/mL SLIGRL-NH2 (SEQ ID NO: 2) solution was intraperitoneally administered as the PAR2 agonist and a cotton ball was immediately placed in the oral cavity of the mouse to collect the saliva. Ten minutes after the administration of the PAR2 agonist, the cotton ball was removed and weighed to measure the amount of saliva secreted.
Note that Reference Example 1 in Table 4 is Compound (XIX). Additionally, Comparative Compound in Table 4 is Compound (XX).

[3] = system: OXA-induced enteritis in BALB/c male mice; assay: Model mouse for enteritis (OXA-induced, bowel length); assay type: in vivo; settings: po, 48 h, 0.1 mg/mL solution 10 mL/kg orally twice (1 hour before and day after OXA induction), length of colon and rectum two days after induction, read-out: Inhibitory activity on bowel shortening (%)
Procedure: Generally, the bowel length is known to be shorter during enteritis (Maxwell, J. R. et al. Curr. Protoc. Pharmacol. Chapter 5: Unit 5.58, 2009). The bowel length in an enteritis model was measured to evaluate the effect of the test compound.
The test compound was added to a 0.5% carboxymethyl cellulose solution so as to have a final concentration of 0.1 mg/mL, thereby preparing an administration solution containing the test compound. Hapten used was 4-ethoxymethylene-2-phenyloxazol-5-one (OXA, SIGMA-ALDRICH).
One hundred (100) μL of a solution of OXA diluted to 0.3% with ethanol was applied to the shaved abdominal region of BALB/c male mice (Charles River), 6-10 weeks of age, to create the sensitization. Five days after the sensitization, OXA was intrarectally administered to induce an enteritis reaction. More specifically, a syringe equipped with a sonde for oral administration was inserted into the anus of the mouse anesthetized by the inhalation of isoflurane at a concentration of 4-5% and 50 μL of the OXA solution adjusted to 1% with a solvent of 50% ethanol/50% distilled water was administered into the rectum.
One hour before and on the day following the induction of enteritis, the administration solution containing the test compound (10 mL/kg) was orally administered twice in total to the mice. Two days after the induction of enteritis, the mice were euthanized by cervical dislocation and subsequently the cecum to the anus was collected to measure the combined length of the colon and the rectum using a ruler, thereby evaluating the action of the test compound.
Note that Reference Example 1 in Table 6 is Compound (XIX).

SMILES	IC50 (PAR2 [1]) [nM]	Inhibitory activity on the PAR2-dependent saliva secretion (%) (PAR2 [2])	inhibition in vivo at 100 µg/mL, 1 mg/kg [3] [%]
Cc1cccc(C)c1N(C)c1cc(-c2cc(F)c(F)c(F)c2)nc2cc(C(=O)N3CC[C@@H](CC(=O)O)[C@@H](F)C3)nn12 (relative stereo) [Example 1, 2-((3R*,4S*)-1-(7-((2,6-dimethylphenyl)(methyl)amino)-5-(3,4,5-trifluorophenyl)pyrazolo[1,5-a]pyrimidine-2-carbonyl)-3-fluoropiperidin-4-yl)acetic acid]	2.57	91.5	60.4
Cc1cccc(C)c1N(C)c1cc(C2CCC(C)(C)CC2)nc2cc(C(=O)N3CC[C@@H](CC(=O)O)[C@@H](F)C3)nn12 (relative stereo) [Example 3, 2-((3R*,4S*)-1-(5-(4,4-dimethylcyclohexyl)-7-((2,6-dimethylphenyl)(methyl)amino)pyrazolo[1,5-a]pyrimidine-2-carbonyl)-3-fluoropiperidin-4-yl) acetic acid]	8.73	86.7	
CO[C@H]1CN(C(=O)c2cc3nc(-c4ccc(F)c(Cl)c4)cc(N(C)c4c(C)cccc4C)n3n2)CC[C@H]1CC(=O)O (relative stereo) [Example 4, 2-((3R*,4S*)-1-(5-(3-chloro-4-fluorophenyl)-7-((2,6-dimethylphenyl)(methyl)amino)pyrazolo[1,5-a]pyrimidine-2-carbonyl)-3-methoxypiperidin-4-yl)acetic acid]	7.32	87.1	
Cc1n[nH]c(C(=O)N2CCN(C(=O)c3cn4nc(-c5ccc(F)cc5)cc(C(C)(C)C)c4n3)C(C)(C)C2)n1 [Comparative Compound, reference compound]	24.2	98.0	
CC(C)CN(c1cc(-c2cc(F)c(F)c(F)c2)nc2cc(C(=O)N(C)[C@H](C)CC(=O)O)nn12)[C@H](C)C(C)C [Example 9, (R)-3-(7-(isobutyl((R)-3-methylbutan-2-yl)amino)-N-methyl-5-(3,4,5-trifluorophenyl)pyrazolo[1,5-a]pyrimidine-2-carboxamide)butanoic acid]	4.9	96.0	

The next lines start with results.

IC50 (PAR2 [1]) [nM]	Inhibitory activity on the PAR2-dependent saliva secretion (%) (PAR2 [2])	SMILES	inhibition in vivo at 100 µg/mL, 1 mg/kg [3] [%]
6.88	97.8	CO[C@H]1CN(C(=O)c2cc3nc(-c4ccc(Cl)c(F)c4)cc(N(C)c4c(C)cccc4Cl)n3n2)CC[C@H]1CC(=O)O (relative stereo) [Example 11, 2-((3R*,4S*)-1-(5-(4-chloro-3-fluorophenyl)-7-((2-chloro-6-methylphenyl)(methyl)amino)pyrazolo[1,5-a]pyrimidine-2-carbonyl)-3-methoxypiperidin-4-yl)acetic acid]	
4.77	98.8	CO[C@H]1CN(C(=O)c2cc3nc(-c4cc(F)c(Cl)c(F)c4)cc(N(C)c4c(C)cccc4Cl)n3n2)CC[C@H]1CC(=O)O (relative stereo) [Example 12, 2-((3R*,4S*)-1-(5-(4-chloro-3,5-difluorophenyl)-7-((2-chloro-6-methylphenyl)(methyl)amino)pyrazolo[1,5-a]pyrimidine-2-carbonyl)-3-methoxypiperidin-4-yl)acetic acid]	
5.08	92.5	CN(c1ccccc1Cl)c1cc(-c2cc(F)c(Cl)c(F)c2)nc2cc(C(=O)N3CC[C@@H](CC(=O)O)[C@@H](F)C3)nn12 (relative stereo) [Example 14, 2-((3R*,4S*)-1-(5-(4-chloro-3,5-difluorophenyl)-7-((2-chlorophenyl)(methyl)amino)pyrazolo[1,5-a]pyrimidine-2-carbonyl)-3-fluoropiperidin-4-yl)acetic acid]	
7.38	95.1	CCCN(c1cc(-c2cc(F)c(Cl)c(F)c2)nc2cc(C(=O)N3CC[C@@H](CC(=O)O)[C@@H](C)C3)nn12)C(C)C (relative stereo) [Example 18, 2-((3R*,4S*)-1-(5-(4-chloro-3,5-difluorophenyl)-7-(isopropyl(propyl)amino)pyrazolo[1,5-a]pyrimidine-2-carbonyl)-3-methylpiperidin-4-yl)acetic acid]	
3.27	94.9	CN(c1c(F)cccc1Cl)c1cc(-c2cc(F)c(F)c(F)c2)nc2cc(C(=O)N3CCC(CC(=O)O)CC3)nn12 [Example 17, 2-(1-(7-((2-chloro-6-fluorophenyl)(methyl)amino)-5-(3,4,5-trifluorophenyl)pyrazolo[1,5-a]pyrimidine-2-carbonyl)piperidin-4-yl)acetic acid]	
